Reference: publication PMC12648443, “Modifications of NU-9, a potent protein aggregation inhibitor. Properties and activity in a cellular model of amyotrophic lateral sclerosis” (Bioorganic chemistry, 2025)

How the values were obtained:
P-gp = target: T1, P-gp (Homo sapiens, UniProt P08183); experiment: MDCK-MDR1 bidirectional permeability / efflux assay; type: in vitro ADME; settings: MDCK-MRD1, absence of zosuquidar
T1 construct: host or cells: MDCK-MDR1 (Madin Darby canine kidney cells carrying the MDR1 gene)
T1 sequence (P08183 whole entry): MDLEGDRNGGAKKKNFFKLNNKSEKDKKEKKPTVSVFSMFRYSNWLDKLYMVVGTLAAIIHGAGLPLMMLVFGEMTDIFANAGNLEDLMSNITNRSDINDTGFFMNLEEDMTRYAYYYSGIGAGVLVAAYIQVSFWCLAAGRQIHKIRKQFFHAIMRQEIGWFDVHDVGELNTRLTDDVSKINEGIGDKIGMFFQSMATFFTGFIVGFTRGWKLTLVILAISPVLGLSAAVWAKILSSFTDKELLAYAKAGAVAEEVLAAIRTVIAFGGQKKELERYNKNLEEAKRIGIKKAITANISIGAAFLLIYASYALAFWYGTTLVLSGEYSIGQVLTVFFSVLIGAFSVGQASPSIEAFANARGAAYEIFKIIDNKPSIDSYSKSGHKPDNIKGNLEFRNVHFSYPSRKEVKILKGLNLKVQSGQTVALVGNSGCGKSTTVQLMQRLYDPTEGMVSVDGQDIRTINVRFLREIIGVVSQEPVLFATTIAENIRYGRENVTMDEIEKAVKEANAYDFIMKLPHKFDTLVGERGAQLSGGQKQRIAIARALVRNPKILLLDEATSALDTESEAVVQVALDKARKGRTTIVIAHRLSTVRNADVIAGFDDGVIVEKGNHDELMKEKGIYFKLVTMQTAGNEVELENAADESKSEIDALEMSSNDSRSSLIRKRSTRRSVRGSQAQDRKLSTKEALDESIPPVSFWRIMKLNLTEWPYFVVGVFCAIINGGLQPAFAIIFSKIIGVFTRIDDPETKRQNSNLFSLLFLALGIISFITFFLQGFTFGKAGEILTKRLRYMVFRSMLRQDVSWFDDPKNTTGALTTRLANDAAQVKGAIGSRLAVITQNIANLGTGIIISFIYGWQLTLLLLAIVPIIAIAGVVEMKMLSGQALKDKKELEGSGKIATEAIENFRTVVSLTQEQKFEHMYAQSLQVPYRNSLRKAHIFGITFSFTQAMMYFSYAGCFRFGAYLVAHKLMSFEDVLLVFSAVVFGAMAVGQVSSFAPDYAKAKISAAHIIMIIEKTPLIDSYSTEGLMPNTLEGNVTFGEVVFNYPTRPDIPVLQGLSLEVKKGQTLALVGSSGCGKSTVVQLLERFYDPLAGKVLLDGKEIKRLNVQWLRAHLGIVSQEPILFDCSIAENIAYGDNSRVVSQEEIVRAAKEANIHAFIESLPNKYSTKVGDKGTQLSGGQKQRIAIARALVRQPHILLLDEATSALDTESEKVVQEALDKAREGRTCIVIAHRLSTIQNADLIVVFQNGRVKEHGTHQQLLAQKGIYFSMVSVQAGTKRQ
Protocol: The assay was carried out at Sai Life Sciences. Stock solutions of 6, 20, assay controls loperamide, atenolol, and propanolol (4 and 20 mM), and P-gp inhibitor zosuquidar (10 mM) were prepared in DMSO. Then the stock solutions from each test compound were diluted in HBSS buffer containing 10 mM HEPES to obtain the assay working solutions without the P-gp inhibitor at 2 and 10 μM (0.1 % DMSO v/v). Into working solutions containing zosuquidar (5 μM) were individually diluted 6, 20, and loperamide to obtain working solutions containing the test compounds at 2 or 10 μM and zosuquidar at 5 μM.
The MDCK-MDR1 (Madin Darby canine kidney - Multidrug Resistance gene-1) cells were cultured in DMEM media supplemented with 10 % FBS and antibiotics. For transport studies, cells were seeded into PET trans filter membranes (Millipore #PSRP010R5; 1.0 μm pore size) at a density of 1.2 × 10^5 cells/well and colchicine was added to the flasks and plates according to their volume. After 24 h, the media were replaced by fresh media and then changed every 2 days over 8 days. The media were removed from the wells of the basal and apical compartments of the plates, and a solution of HBSS with or without zosuquidar (5 μM) was added to the apical (400 μL) and basal (800 μL) sides of the plates. The plates were pre-incubated at 37 °C for 30 min in humidified air with 5 % CO2. The TTER (Transepithelial-Transendothelial Electrical Resistance) value for each well was recorded (assay TEER >83 Ω.cm^2). The buffer was removed from both compartments, and for the apical to basal direction transport determination, the apical compartment was loaded with 400 μL of the working solutions of the tested compounds or controls (2 or 10 μM) in the presence or absence of zosuquidar (5 μM), and the basal compartment was loaded with 800 μL of HBSS (0.1 % DMSO v/v). For the basal to apical direction transport determination, the compartments were loaded in their reverse order. The assay was performed in duplicate for the two transport directions [apical to basolateral (A → B) and basolateral to apical (B → A)]. After 120 min, 100 μL samples from both the apical and basal sides of the plate were transferred to new 96-deep well plates, quenched with acetonitrile containing an internal standard, vortexed for 5 min, and then centrifuged at 4000 rpm for 10 min. The same procedure was used to prepare a 96-deep well plate containing non-assayed working solutions (t = 0 concentrations). After centrifugation, 100 μL of the supernatant of each well was transferred to a new 96-well plate, and the samples were analyzed by LC-MS/MS.
For each experiment, the apparent permeability (Papp) for each direction and the efflux ratio (ER) were determined by the equations: Papp(cm/s)=(dQ/dt)/A×Co
where dQ/dt is the rate of permeation of the tested compounds across the (0 and 120 min) after correcting for dilution; A is the area of the filter (0.7 cm^2); Co is the initial concentration of the compounds on the donor compartment.
Where P(B→A) is the apparent permeability of the compounds from the basal to the apical direction and P(A→B) is the apparent permeability from the apical to basal direction. Lucifer Yellow was used as a control of the assay to evaluate monolayer integrity after incubation with the working solutions of the compounds, and the results were validated if the permeability of Lucifer Yellow from the apical to the basal side after 1-h incubation was kept <2 %. The results are presented as an average of two independent experiments.

cortical neurons = test system: cortical neurons; design: method as in PMID 22189273; settings: cited from earlier work
[1] = test system: cells containing SOD1 mutations associated with ALS; design: method as in PMID 21073276, PMID 22189273, PMID 22837812; settings: Fig. 1, evolution of CHD series; cited from earlier work
[2] = test system: MG132-induced mutant SOD1 intracellular aggregation in PC12-SOD1^G85R YFP cells; experiment: Protection against MG132-induced mut-SOD1 intracellular aggregation (fluorescence microscopy); type: cell-based; settings: for EC50 against MG132-induced mutant SOD1 intracellular aggregation / EC50: PC12-SOD1^G85R YFP cells, 0.7 μM MG132, 72 h, Inactive = no decrease of aggregates at 10 μM vs vehicle; for loss of potency relative to NU-9: anti-aggregation EC50 compared with NU-9
Protocol: The PC12 Tet-Off-SOD1^G85R YFP cells were cultured in DMEM media supplemented with 10 % horse serum, 5 % Tet-approved FBS, 1 % Penstrep, 1× L-glutamine, 200 μg/mL hygromycin, 100 μg/mL G418, with 1 μg/mL Doxycycline and were incubated at 37 °C in humidified air with […] until 90–95 % confluency. To induce the expression of SOD1^G85R YFP, the Doxycycline was removed at least 4 days before the experiment. To remove the Doxycycline, the media was removed, and the cells were washed 3 times with 1xPBS. The cells were then cultured in standard culture media without Doxycycline. To set up the assay, the cells were then seeded into 96-well cell culture plates (Greiner Bio-One Catalog #655090) at a concentration of 50,000 cells/well with a final volume of 100 μL/well and incubated in the CO2 incubator at 37 °C for 24 h. The media were removed from the cells and replaced with 100 μL of media containing 0.1 % DMSO or compounds, and incubated in the CO2 incubator at 37 °C for 6 h. The media were then replaced with fresh 100 μL of media containing the diluted compounds with 0.7 μM (−)-MG-132, and the plates were incubated for 72 h under culture conditions. After 72 h, the cells were stained with Hoescht 33,342 (55 μg/mL, 10 μL/well) and imaged (lex = 358, 513 nm) using a Molecular Devices ImageXpress Micro Confocal High-Content Imaging System equipped with a 40× objective. […] Image binning was set to 2. DAPI fluorescence was captured using an exposure time of 300 ms, and FITC fluorescence was captured using an exposure time of 400 ms. A 13-plane z-series was acquired for each field of view with a step size of 3 μm. For each condition, 2 sets of 9 images were generated in a 3 × 3 grid to separately image the SOD1^G85R YFP proteins and the nuclei stained with Hoescht 33,342. Image analysis was performed with MetaXpress software (Molecular Devices) using the Transfluor module. Parameters for puncta detection (aggregates) were set with a minimum pit width of 2 μm and a maximum pit width of 5 μm. Signal intensity thresholds were defined as 700 grayscale units above the local background. The analysis provided the average area of each cell that is covered by puncta (pit/cell), which are indicated by bright green spots on the SOD1^G85RYFP image set.
The assay was performed in triplicate for each condition tested, and wells containing the media with vehicle (0.1 % DMSO) or (−)-MG-132 alone were used as controls representing the minimum and maximum aggregate formation. […] The data for EC50 determination was treated with Prism and fitted using a semi-logarithmic curve for determination of the EC50 values of NU9 and compounds 4, 6, 20 and 21.

[3] = Parallel artificial membrane permeability assay - blood brain barrier (PAMPA-BBB); settings: for Log Pe: High permeability LogPe > −5.33, No permeability LogPe < −6.14; for Papp at 18 h, 250 μM: pig, PAMPA, pH 7.5
Protocol: A solution of 1 × PBS (pH 7.5) was initially prepared by the dilution of a commercially available 10 × PBS solution. […] A solution of porcine brain lipid (PBL) (20 mg/mL in dodecane) was prepared, and 4 μL of this solution was used to coat the filters on the bottom of the PAMPA donor plates (Sigma Aldrich #MAIPNTR10). After air drying for 20 min, the donor plate wells were charged with 250 μL of the solutions of the test compounds or the controls. The donor plate was then placed over the acceptor plate (Sigma Aldrich #MATRNPS50), in which wells were previously filled with 1 × PBS (2 % DMSO v/v) solution. The PAMPA sandwich was closed with parafilm and incubated at 25 °C for 18 h in a humidity-saturated atmosphere with orbital agitation. […] The UV spectra (250–400 nm) of each well were acquired on a BioTek Synergy H1 MD plate reader equipped with a monochromator at room temperature.
CA(t) is the concentration of the compounds at the final time of incubation on the acceptor well; CD(0) and CD(t) are the concentration of the compounds at the initial time of incubation and at the final time of incubation on the donor well, respectively.

For `CN(C)C(=O)C(CCN1CCC(O)(c2ccc(Cl)cc2)CC1)(c1ccccc1)c1ccccc1` [Lop., loperamide, reference compound], the “Papp (B → A)” value (P-gp) was 25.70 ± 0.35 10^−6 cm/s, the efflux ratio at 120 min (P-gp; dog, MDCK-MDR1, read-out: Efflux Ratio) was 128 and the Papp A→B at 120 min (P-gp; dog, MDCK-MDR1, read-out: Papp (A → B)) was 0.2 ± 0.06 ×10⁻⁶ cm/s.

In the case of `O=C1CC(=O)CC(c2cc(C(F)(F)F)cc(C(F)(F)F)c2)C1` [Compound 2], the “activity in cortical neuron protection assays” value (cortical neurons) is listed as “inactive” and the EC50 [1] is listed as 0.7 µM.

With `O=C1CC2CC(C1)C(Cc1cc(C(F)(F)F)cc(C(F)(F)F)c1)O2` (stereo not drawn) [Compound 12] the “EC50 against MG132-induced mutant SOD1 intracellular aggregation” value [2] was “Inactive”.

In the case of `O=C1CC(=O)CC(C2(Oc3cc(C(F)(F)F)cc(C(F)(F)F)c3)CCC2)C1` [Compound 21, 5-(1-(3,5-bis(trifluoromethyl)phenoxy)cyclobutyl)cyclohexane-1,3-dione], the EC50 [2] is reported as 5.37 ± 1.03 µM, the “loss of potency relative to NU-9” value [2] is reported as greater than 2 fold and the “Log Pe” value ([3]; PAMPA-BBB) is reported as −4.77. For the same compound, the Papp at 18 h, 250 μM [3] was 16.8 ± 0.54 ×10⁻⁶ cm/s.

In the case of `Cl.N[C@@H]1C[C@H]2C[C@@H](C1)[C@H](Cc1cc(C(F)(F)F)cc(C(F)(F)F)c1)O2` [Compound 19, (1R,3S,5R,7S)-7-(3,5-Bis(trifluoromethyl)benzyl)-6-oxabicyclo[3.2.1]octan-3-aminium chloride], the “EC50 against MG132-induced mutant SOD1 intracellular aggregation” value [2] is reported as “Inactive”.

`O=C1CC(=O)CN(CCc2cc(C(F)(F)F)cc(C(F)(F)F)c2)C1` [Compound 10, 1-(3,5-Bis(trifluoromethyl)phenethyl)piperidine-3,5-dione] showed an EC50 [2] greater than 10 µM.

In the case of `O=C1CC2CC(C1)C(c1cc(C(F)(F)F)cc(C(F)(F)F)c1)O2` (stereo not drawn) [Compound 16], the EC50 [2] is reported as greater than 10 µM and the “decrease in MG132-induced SOD-1^G85R aggregate formation” value ([2]; at 10 μM, 72 h) is reported as “mild anti-aggregation activity”.

For `OC1CC2CC(C1)C(c1cc(C(F)(F)F)cc(C(F)(F)F)c1)O2` (stereo not drawn) [Compound 17], the “EC50 against MG132-induced mutant SOD1 intracellular aggregation” value [2] was “Inactive”.

`O=C1CC(=O)C(Cc2cc(C(F)(F)F)cc(C(F)(F)F)c2)C1` (stereo not drawn) [Compound 8, 4-(3,5-Bis(trifluoromethyl)benzyl)cyclopentane-1,3-dione] showed an EC50 [2] greater than 10 µM.

For `Cl.N[C@H]1C[C@H]2C[C@@H](C1)[C@H](Cc1cc(C(F)(F)F)cc(C(F)(F)F)c1)O2` [Compound 18, (1R,3R,5R,7S)-7-(3,5-Bis(trifluoromethyl)benzyl)-6-oxabicyclo[3.2.1]octan-3-aminium chloride], the “EC50 against MG132-induced mutant SOD1 intracellular aggregation” value [2] was “Inactive”.

For `CC1=NN(c2ccccc2)C(=O)C1` [Edaravone, edaravone, reference compound], the Pe ([3]; PAMPA-BBB, 250 μM, PBS pH 7.5, 25 °C, 18 h) was 17.43 ± 3.20 10^−6 cm/s and the “Log Pe” value ([3]; PAMPA-BBB) was −4.76.

In the case of `OC1CC2CC(C1)C(Cc1cc(C(F)(F)F)cc(C(F)(F)F)c1)O2` (stereo not drawn) [Compound 13], the “EC50 against MG132-induced mutant SOD1 intracellular aggregation” value [2] is reported as “Inactive”.

For `O[C@@H]1CC([C@H](O)Cc2cc(C(F)(F)F)cc(C(F)(F)F)c2)C[C@H](O)C1` (stereo partly drawn) [Compound 5, (1R,3S)-5-((R)-2-(3,5-Bis(trifluoromethyl)phenyl)-1-hydroxyethyl)cyclohexane-1,3-diol], the “EC50 against MG132-induced mutant SOD1 intracellular aggregation” value [2] was “Inactive”.

In the case of `O=C1CC(=O)CC(c2ccc(F)cc2)C1` [Compound 1], the EC50 [1] is given as 0.8 µM.

With `OC1CC2CC(C1)C(Cc1cc(C(F)(F)F)cc(C(F)(F)F)c1)O2` (stereo not drawn) [Compound 14] the “EC50 against MG132-induced mutant SOD1 intracellular aggregation” value [2] was “Inactive”.

For `COC1=CC(=O)C(Cc2cc(C(F)(F)F)cc(C(F)(F)F)c2)C1` (stereo not drawn) [Compound 7, 5-(3,5-Bis(trifluoromethyl)benzyl)-3-methoxycyclopent-2-en-1-one], the “EC50 against MG132-induced mutant SOD1 intracellular aggregation” value [2] was “Inactive”.

For `OC1CC2CC(C1)C(Cc1cc(C(F)(F)F)cc(C(F)(F)F)c1)O2` (stereo not drawn) [Compound 15], the “EC50 against MG132-induced mutant SOD1 intracellular aggregation” value [2] was “Inactive”.

In the case of `O=C1CC(=O)CC(C(O)Cc2cc(C(F)(F)F)cc(C(F)(F)F)c2)C1` (stereo not drawn) [Compound 4, 5-(2-(3,5-Bis(trifluoromethyl)phenyl)-1-hydroxyethyl)cyclohexane-1,3-dione], the EC50 [2] is reported as 7.89 ± 1.88 µM, the “loss of potency relative to NU-9” value [2] is reported as 3 fold and the “Log Pe” value ([3]; PAMPA-BBB) is reported as −6.61. The Papp at 18 h, 250 μM [3] was 0.25 ± 0.01 ×10⁻⁶ cm/s.

With `O=C1CC2CC(C1)C(Cc1cc(C(F)(F)F)cc(C(F)(F)F)c1)O2` (stereo not drawn) [Compound 11] the “EC50 against MG132-induced mutant SOD1 intracellular aggregation” value [2] was “Inactive”.
